Experimental data published in US10703755B2, “Substituted purine derivative” (SUMITOMO DAINIPPON PHARMA CO., LTD., priority 2016, dated 2020).
pIC50: −log10 of the molar value.

Target: human TLR7 (Homo sapiens (Human), UniProt Q9NYK1)
Experiment: Test for evaluating the inhibition of the activation of human TLR7 (SEAP reporter, TLR7/NF-κB/SEAPorter HEK293 cell)
Format: cell-based
Details: R-848 200 nmol/L; for inhibitory effect against TLR7 in the test for evaluating inhibition of the activation of TLR7: SEAP activity, result in words; for pIC50: SEAP reporter
In short: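 The readout is secreted alkaline phosphatase under NF-κB response-element control in TLR7/NF-κB/SEAPorter HEK293 cells, which stably express full-length human TLR7. Cells were plated at 5×10^4 per well and grown overnight at 37° C, 5% CO2, in DMEM/10% FBS/blasticidin.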

human TLR7, sequence (Q9NYK1 27-1049): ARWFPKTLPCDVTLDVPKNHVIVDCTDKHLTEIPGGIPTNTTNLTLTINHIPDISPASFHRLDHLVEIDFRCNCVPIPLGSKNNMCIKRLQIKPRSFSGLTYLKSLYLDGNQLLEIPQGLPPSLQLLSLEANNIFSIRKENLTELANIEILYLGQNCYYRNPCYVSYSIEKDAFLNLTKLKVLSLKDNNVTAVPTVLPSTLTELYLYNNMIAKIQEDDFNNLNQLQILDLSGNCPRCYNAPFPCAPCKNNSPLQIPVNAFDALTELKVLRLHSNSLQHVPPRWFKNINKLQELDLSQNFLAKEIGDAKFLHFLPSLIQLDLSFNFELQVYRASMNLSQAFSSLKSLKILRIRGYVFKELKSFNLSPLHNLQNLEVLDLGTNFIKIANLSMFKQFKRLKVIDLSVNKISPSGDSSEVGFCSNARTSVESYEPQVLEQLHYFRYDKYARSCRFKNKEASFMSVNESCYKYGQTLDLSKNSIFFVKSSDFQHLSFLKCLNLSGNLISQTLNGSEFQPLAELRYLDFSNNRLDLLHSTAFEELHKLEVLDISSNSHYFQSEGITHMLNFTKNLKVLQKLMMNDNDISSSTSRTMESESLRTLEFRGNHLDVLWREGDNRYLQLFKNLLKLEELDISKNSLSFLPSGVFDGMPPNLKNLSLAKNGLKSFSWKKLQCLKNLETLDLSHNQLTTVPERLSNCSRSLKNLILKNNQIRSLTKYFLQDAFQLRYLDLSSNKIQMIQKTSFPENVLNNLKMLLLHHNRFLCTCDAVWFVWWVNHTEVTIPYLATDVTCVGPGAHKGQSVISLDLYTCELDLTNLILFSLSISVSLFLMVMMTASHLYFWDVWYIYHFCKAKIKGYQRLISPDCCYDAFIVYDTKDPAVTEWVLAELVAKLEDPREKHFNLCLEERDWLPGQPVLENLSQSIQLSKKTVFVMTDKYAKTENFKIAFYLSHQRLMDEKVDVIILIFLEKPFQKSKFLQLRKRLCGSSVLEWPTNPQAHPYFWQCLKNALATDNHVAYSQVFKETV

SMILES | inhibitory effect against TLR7 in the test for evaluating inhibition of the activation of TLR7 | pIC50
COc1nc(C)c2nc(-c3cncc(C#N)c3)n(Cc3ccc(C4CCN(C)CC4)cc3F)c2n1 [Example 288] | potent inhibitory effect against TLR7 | 7.21
CCOc1nc(C)c2nc(-c3cncc(F)c3)n(Cc3cnn(CC4CN(C)CCO4)c3)c2n1 (stereo not shown) [Example 272] |  | 6.58
CCOc1nc(C)c2nc(-c3cncc(F)c3)n(Cc3cnc(C4=CN5CCC4CC5)cc3OC)c2n1 [Example 355] |  | 5.80
CCOc1nc(C)c2nc(-c3cncc(F)c3)n(Cc3cnn(C4CCN(C)C4)c3)c2n1 (stereo not shown) [Example 164] |  | 6.77
COc1nc(C)c2nc(-c3cccnc3)n(Cc3ccc(CN4C[C@@H]5C[C@H]4CN5C)cc3F)c2n1 [Example 310, 9-(2-fluoro-4-{[(1S,4S)-5-methyl-2,5-diazabicyclo[2.2.1]hept-2-yl]methyl}benzyl)-2-methoxy-6-methyl-8-(pyridin-3-yl)-9H-purine] | potent inhibitory effect against TLR7 | 7.55
COc1nc(C)c2nc(-c3cncc(F)c3)n(Cc3ccc(CN4C[C@@H]5C[C@H]4CN5C)cc3)c2n1 [Example 107, 8-(5-fluoropyridin-3-yl)-2-methoxy-6-methyl-9-(4-{[(1S,4S)-5-methyl-2,5-diazabicyclo[2.2.1]hept-2-yl]methyl}benzyl)-9H-purine] | potent inhibitory effect against TLR7 | 7.57
CCOc1nc(N)c2nc(-c3cncc(F)c3)n(Cc3ccccc3F)c2n1 [Example 44] |  | 6.12
CCOc1nc(C)c2nc(-c3cncc(F)c3)n(Cc3cnc(CC4CCNCC4)cc3OC)c2n1 [Example 430] |  | 6.26
COc1nc(C)c2nc(-c3cncc(F)c3)n(Cc3ccc(OCC4CN(C)C4)cc3F)c2n1 [Example 286, 9-{2-fluoro-4-[(1-methylazetidin-3-yl)methoxy]benzyl}-8-(5-fluoropyridin-3-yl)-2-methoxy-6-methyl-9H-purine] | potent inhibitory effect against TLR7 | 7.59
COc1nc(C)c2nc(-c3cncc(C#N)c3)n(Cc3ccc(C4CN5CCC4CC5)cc3F)c2n1 (stereo not shown) [Example 340] | potent inhibitory effect against TLR7 | 7.59
COc1nc(C)c2nc(-c3cncc(F)c3)n(Cc3ccc(O[C@H]4CCN(C)C4)cc3F)c2n1 [Example 414, 9-(2-fluoro-4-{[(3S)-1-methylpyrrolidin-3-yl]oxy}benzyl)-8-(5-fluoropyridin-3-yl)-2-methoxy-6-methyl-9H-purine] | potent inhibitory effect against TLR7 | 7.80
CCOc1nc(C)c2nc(-c3cncc(F)c3)n(Cc3cnn(CC4CCCN(C)C4)c3)c2n1 (stereo not shown) [Example 276] | potent inhibitory effect against TLR7 | 7.62
CCOc1nc(C)c2nc(-c3cncc(F)c3)n(Cc3ccc(C4=CN5CCC4CC5)cc3C#N)c2n1 [Example 363] |  | 6.23
COc1nc(C)c2nc(-c3cncc(F)c3)n(Cc3ccc(OCCN(C)C)cc3F)c2n1 [Example 420] |  | 6.86
CCOc1nc(C)c2nc(-c3cncc(F)c3)n(Cc3cnn(CCN4CCCC4)c3)c2n1 [Example 246] |  | 6.52
CCN1CCC(c2ccc(Cn3c(-c4cccnc4)nc4c(C)nc(OC)nc43)c(F)c2)CC1 [Example 293, 9-[4-(1-ethylpiperidin-4-yl)-2-fluorobenzyl]-2-methoxy-6-methyl-8-(pyridin-3-yl)-9H-purine] | potent inhibitory effect against TLR7 | 7.74
CCOc1nc(C)c2nc(-c3cncc(F)c3)n(Cc3cnc(CC4CCN(C)CC4)cc3OC)c2n1 [Example 281] |  | 6.85
COc1nc(C)c2nc(-c3cncc(F)c3)n(Cc3ccc(C4CN5CCC4CC5)cc3)c2n1 (stereo not shown) [Example 165, 9-[4-(1-Azabicyclo[2.2.2]oct-3-yl)benzyl]-8-(5-fluoropyridin-3-yl)-2-methoxy-6-methyl-9H-purine] | potent inhibitory effect against TLR7 | 7.80
CCOc1nc(N)c2nc(-c3cncc(F)c3)n(Cc3ccc(O[C@@H]4CN5CCC4CC5)cc3)c2n1 [Example 66, 9-{4-[(3S)-1-Azabicyclo[2.2.2]oct-3-yloxy]benzyl}-2-ethoxy-8-(5-fluoropyridin-3-yl)-9H-purine-6-amine] | potent inhibitory effect against TLR7 | 7.68
COc1nc(C)c2nc(-c3cncc(C#N)c3)n(Cc3ccc(C4CN5CCC4CC5)cc3F)c2n1 (single isomer, unassigned) [Example 402, 5-{9-[4-(1-azabicyclo[2.2.2]oct-3-yl)-2-fluorobenzyl]-2-methoxy-6-methyl-9H-purin-8-yl}pyridine-3-carbonitrile] |  | 6.88
CCOc1nc(N)c2nc(-c3cncc(F)c3)n(Cc3ccc(N4CCN(C)CC4)cc3)c2n1 [Example 68, 2-Ethoxy-8-(5-fluoropyridin-3-yl)-9-[4-(4-methylpiperazin-1-yl)benzyl]-9H-purine-6-amine] |  | 6.74
COCCOc1nc(N)c2nc(-c3cncc(F)c3)n(Cc3ccc(CN4CCC(F)(F)CC4)cc3)c2n1 [Example 92] |  | 6.43
COc1nc(C)c2nc(-c3cncc(F)c3)n(Cc3cnn(C)c3)c2n1 [Example 243] |  | 5.58

SMILES | inhibitory effect against TLR7 in the test for evaluating inhibition of the activation of TLR7 | pIC50
COc1nc(C)c2nc(-c3cncc(F)c3)n(Cc3cccc(C4=CN5CCC4CC5)c3)c2n1 [Example 364] |  | 7.96
COc1nc(C)c2nc(-c3cccnc3)n(Cc3ccc(C4CN5CCC4CC5)c(F)c3)c2n1 (stereo not shown) [Example 380] |  | 6.65
CCCCOc1nc(N)c2nc(-c3cncc(F)c3)n(Cc3ccccc3)c2n1 [Example 1, 9-Benzyl-2-butoxy-8-(5-fluoropyridin-3-yl)-9H-purine-6-amine] |  | 5.64
CCCCOc1nc(N)c2nc(-c3cncc(COC)c3)n(Cc3ccccc3)c2n1 [Example 19] |  | 5.85
CCOc1nc(C)c2nc(-c3cncc(F)c3)n(Cc3ccc(O[C@@H]4CN5CCC4CC5)nc3)c2n1 [Example 71, 9-({6-[(3S)-1-azabicyclo[2.2.2]oct-3-yloxy]pyridin-3-yl}methyl)-2-ethoxy-8-(5-fluoropyridin-3-yl)-6-methyl-9H-purine] | potent inhibitory effect against TLR7 | 7.24
CCOc1nc(C)c2nc(-c3cncnc3)n(Cc3ccc(CN4C[C@@H]5C[C@H]4CN5C)cc3F)c2n1 [Example 312, 2-ethoxy-9-(2-fluoro-4-{[(1S,4S)-5-methyl-2,5-diazabicyclo[2.2.1]hept-2-yl]methyl}benzyl)-6-methyl-8-(pyrimidin-5-yl)-9H-purine] | potent inhibitory effect against TLR7 | 7.60
CCOc1nc(N)c2nc(-c3cncc(F)c3)n(Cc3ccc(CN4CCC(F)(F)CC4)cc3)c2n1 [Example 99] |  | 6.84
CCOc1nc(N)c2nc(-c3cncc(F)c3)n(Cc3ccc(C4CCN(C(=O)CN(C)C)CC4)cc3)c2n1 [Example 148, 1-[4-(4-{[6-Amino-2-ethoxy-8-(5-fluoropyridin-3-yl)-9H-purin-9-yl]methyl}phenyl)piperidin-1-yl]-2-(dimethylamino)ethanone] | potent inhibitory effect against TLR7 | 7.80
COc1cncc(-c2nc3c(C)nc(OC)nc3n2Cc2ccc(C3CN4CCC3CC4)cc2F)c1 (stereo not shown) [Example 302] | potent inhibitory effect against TLR7 | 7.17
CCOc1nc(C)c2nc(-c3cncc(F)c3)n(Cc3cnc(C4CN5CCC4CC5)cc3C)c2n1 (stereo not shown) [Example 330] |  | 6.67
CCOc1nc(C)c2nc(-c3cncc(F)c3)n(Cc3cnn(CC4COCCN4C)c3)c2n1 (stereo not shown) [Example 274] |  | 7.00
CCOc1nc(C)c2nc(-c3cncc(F)c3)n(Cc3cnn(CC4CNCCO4)c3)c2n1 (stereo not shown) [Example 424] |  | 7.00
CCOc1nc(N)c2nc(-c3cncc(F)c3)n(Cc3ccc(N4CCN(C)CC4)nc3)c2n1 [Example 65] |  | 6.26
CCCCOc1nc(N)c2nc(-c3ccccc3)n(Cc3ccccc3)c2n1 [Example 11] |  | 4.96
CN(C)Cc1ccc(Cn2c(-c3cncc(F)c3)nc3c(N)nc(Cl)nc32)cc1 [Example 118] |  | 6.02
COc1nc(C)c2nc(-c3cncc(F)c3)n(Cc3ccc(CN4CCC4)cc3F)c2n1 [Example 260, 9-[4-(azetidin-1-ylmethyl)-2-fluorobenzyl]-8-(5-fluoropyridin-3-yl)-2-methoxy-6-methyl-9H-purine] | potent inhibitory effect against TLR7 | 7.74
COc1nc(C)c2nc(-c3cncc(F)c3)n(Cc3ccc(CC4CCN(C)CC4)cc3F)c2n1 [Example 283] | potent inhibitory effect against TLR7 | 7.68
COc1nc(C)c2nc(-c3cncc(F)c3)n(Cc3ccc(O[C@H]4CN5CCC4CC5)nc3)c2n1 [Example 70] | potent inhibitory effect against TLR7 | 6.96
CCOc1nc(N)c2nc(-c3cncc(F)c3)n(Cc3ccc(CN4CC(F)(F)C4)cc3)c2n1 [Example 101] | potent inhibitory effect against TLR7 | 7.25
CCCCN(C)c1nc(N)c2nc(-c3cncc(F)c3)n(Cc3ccc(CN(C)C)cc3)c2n1 [Example 155] |  | 5.09
CCOc1nc(N)c2nc(-c3cncc(COC)c3)n(Cc3ccc(CN(C)C)cc3)c2n1 [Example 34] |  | 5.77
CCCCOc1nc(N)c2nc(-c3ccccn3)n(Cc3ccccc3)c2n1 [Example 35] |  | 4.74
Cc1nc(O)nc2c1nc(-c1cncc(F)c1)n2Cc1ccc(C2CN3CCC2CC3)cc1F (stereo not shown) [Example 389] |  | 5.69
